Measurements published in PMC11054528, “Evaluation of Physicochemical Properties of Ipsapirone Derivatives Based on Chromatographic and Chemometric Approaches” (Molecules, 2024).

Key:
[1] = Fast gradient RP-HPLC on C18 column (CHI lipophilicity); type: physicochemical; details: for CHIC18 pH = 2.6 / CHIC18 pH = 7.4 / CHIC18 pH = 10.6: C18 column; for CHI LogP: from chromatographically determined CHI on nonionized forms (pH 10.6), CHI LogP = 0.054 × CHI − 1.467
Excerpt: Considering the significant differences in the calculations obtained, the next step of our investigation considered the determination of lipophilicity using a chromatographic approach. Among the available protocols, the fast gradient approach developed by Valko was chosen because it enables the assessment of lipophilicity from a single chromatographic measurement. In addition, this approach enables the determination of the acid/basic properties of molecules through the addition of experiments under different pH conditions.
Therefore, the CHI under pH10.6 can be considered and converted to chromatographically determined LogP, called CHI LogP. A cluster analysis (CA) was performed to compare chromatographically determined and calculated lipophilicity. A CA can be used for the visualization of similarities and differences between studied objects, in this case, lipophilic parameters. The obtained results clearly indicate that significant differences between theoretical and experimental data occurred, and they formed two separate groups (Figure 1). The differences are also visible on the calculated correlation matrix (Figure 2).
For RP-HPLC experiments, a C18 Hypersil GOLD^TM (50 mm × 4.6 mm; 5.0 µm with a guard column; Thermo Scientific, Waltham, MA, USA) column was applied. The column temperature was set to 40 °C. Three water solutions were used as mobile phase A: acetic acid at pH 2.6, […] at pH 7.4, and 50 mM ammonium acetate at pH 10.5. Mobile phase B was acetonitrile (ACN). The linear gradient from 2 to 98% ACN was applied from 0 to 5.25 min and held at 98% ACN for 1.75. The mobile phase flow rate was 1.5 mL/min throughout the experiment.

[2] = IAM-HPLC, immobilized artificial membrane chromatography (affinity to phospholipids); type: physicochemical; parameters: scale not given here; details: IAM.PC.DD2 column, pH 7.4
Excerpt: In considering that lipophilicity is a known factor influencing passive diffusion across the BBB, this is an important observation. The affinity to phospholipids can also be determined using one-gradient protocols and the IAM column. CHIIAM can be used as a cut-off point to indicate the potential for promiscuous binding and interference with phospholipids.
The immobilized artificial membrane column (IAM.PC.DD2, 10 × 4.6 mm × 10.0 µm with a guard column (Regis Technologies; Morton Grove, IL, USA) was used for IAM-HPLC experiments. The column temperature was set to 30 °C. Similar to RP-HPLC, mobile phase A was a 50 mM ammonium acetate at pH 7.4, and mobile phase B was acetonitrile. The linear gradient from […] ACN was applied from 0 to 5.25 min and held at 98% ACN for 0.5 min at a constant flow rate of 1.5 mL/min.

[3] = target: human serum albumin (HSA) (Homo sapiens, UniProt P02768); test: HSA-HPLC, biomimetic chromatography on Chiralpak HSA column; type: in vitro ADME; parameters: purchased Daicel Chiral Technologies, West Chester, PA, USA; details: for LogKHSA: pH 7.4; for %HSA: pH 7.4, recalculated from logKHSA
Chain of human serum albumin (HSA) (P02768 25-609): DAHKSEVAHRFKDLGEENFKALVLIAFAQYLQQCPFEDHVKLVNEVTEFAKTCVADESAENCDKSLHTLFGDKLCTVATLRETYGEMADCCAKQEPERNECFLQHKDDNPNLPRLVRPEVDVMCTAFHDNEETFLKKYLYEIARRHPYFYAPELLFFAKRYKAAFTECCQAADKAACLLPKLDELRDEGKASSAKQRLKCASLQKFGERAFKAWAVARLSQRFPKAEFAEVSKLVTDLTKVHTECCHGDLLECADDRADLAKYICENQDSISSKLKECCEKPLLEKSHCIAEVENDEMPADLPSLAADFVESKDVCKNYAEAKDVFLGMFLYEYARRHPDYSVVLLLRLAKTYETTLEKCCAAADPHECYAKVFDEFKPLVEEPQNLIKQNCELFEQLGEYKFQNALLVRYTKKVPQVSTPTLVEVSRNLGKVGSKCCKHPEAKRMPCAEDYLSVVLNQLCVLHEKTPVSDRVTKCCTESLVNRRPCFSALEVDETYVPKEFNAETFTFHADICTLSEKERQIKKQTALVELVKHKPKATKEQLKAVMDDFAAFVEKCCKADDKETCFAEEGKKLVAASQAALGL
Excerpt: Utilizing columns modified by plasma proteins, such as human serum albumin (HSA), allows for estimating binding to plasma protein (PPB). Generally, PPB affects drug pharmacokinetics, including distribution, half-life, and clearance. While lipophilicity is a well-known factor in determining PPB, it should also be considered in early drug discovery. In general, more lipophilic compounds tend to have higher percentages of PP due to nonspecific interactions with proteins. However, hydrophilic compounds can also bind strongly to PP through […] and electrostatic interactions by binding in protein pockets.
For HSA-HPLC experiments, the column was Chiralpak® HSA (100 × 4 mm; 5 µm with safety guard column; Daicel Chiral Technologies, West Chester, PA, USA). The column temperature was set to 30 °C. The same phase A as in the IAM-HPLC case was used, and the mobile phase B was isopropanol (i-PrOH). The linear gradient from 0 to 20% i-PrOH was applied from 0 to 15 min, held at 20% i-PrOH for 12 min, and then returned to pure ammonium acetate solution. The mobile phase flow rate was 0.9 mL/min throughout the experiment. Three minutes of column recalibration was applied between each run. The retention times were collected at wavelengths between 190 and 300 nm, and the injection volume was 10 μL.

SMILES | CHIC18 pH = 2.6 [1] | CHIC18 pH = 7.4 [1] | CHIC18 pH = 10.6 [1] | CHI LogP [1] | CHIIAM [2] | LogKHSA [3] | %HSA [3] [%] | affinity to HSA compared with reference diclofenac [3] | affinity to HSA, in words [3]
O=C1c2ccccc2S(=O)(=O)N1CCCCCCN1CCN(c2cccc(Cl)c2)CC1 [molecule 16] | 61.89 | 108.61 | 111.92 | 4.58 | 46.73 | 1.71 | 99.06 | – | –
COc1ccccc1N1CCN(CCCCN2C(=O)c3ccccc3S2(=O)=O)CC1 [molecule 2] | 60.08 | 110.90 | 109.41 | 4.44 | 46.90 | 1.72 | 99.13 | – | –
COc1ccc(N2CCN(CCCCCCN3C(=O)c4ccccc4S3(=O)=O)CC2)cc1 [molecule 15] | 55.04 | 87.50 | 96.78 | 3.76 | 40.04 | 0.65 | 82.67 | – | –
O=C1c2ccccc2S(=O)(=O)N1CCCCCCN1CCN(c2ccccn2)CC1 [molecule 22] | 43.25 | 82.33 | 90.87 | 3.44 | 38.48 | 0.55 | 78.60 | – | –
O=C1c2ccccc2S(=O)(=O)N1CCCCCCN1CCN(c2cccc3sccc23)CC1 [molecule 25] | 60.65 | 101.68 | 108.64 | 4.40 | 45.96 | 1.57 | 98.37 | – | –
O=C1c2ccccc2S(=O)(=O)N1CCCCCN1CCN(c2ccccn2)CC1 [molecule 10] | 38.96 | 76.74 | 84.51 | 3.10 | 35.73 | 0.72 | 84.71 | – | –
O=C1c2ccccc2S(=O)(=O)N1CCCCCCN1CCN(c2ccc(Cl)c(Cl)c2)CC1 [molecule 18] | 65.39 | 119.04 | 118.39 | 4.93 | 50.19 | 2.27 | – | higher affinity to reference diclofenac | –
O=C1c2ccccc2S(=O)(=O)N1CCCCN1CCN(c2cccc(Cl)c2Cl)CC1 [molecule 3] | 49.19 | 78.80 | 87.69 | 3.27 | 35.71 | 0.52 | 77.60 | – | –
O=C1c2ccccc2S(=O)(=O)N1CCCCCN1CCN(c2ccccc2)CC1 [molecule 5] | 52.20 | 89.50 | 95.60 | 3.70 | 39.09 | 0.84 | 88.23 | – | –
O=C1c2ccccc2S(=O)(=O)N1CCCCCCN1CCN(c2ccc(Cl)cc2)CC1 [molecule 17] | 61.34 | 106.56 | 110.38 | 4.49 | 46.32 | 1.57 | 98.36 | – | –
COc1ccccc1N1CCN(Cc2ccc(CN3C(=O)c4ccccc4S3(=O)=O)cc2)CC1 [molecule 26] | 55.76 | 100.20 | 100.01 | 3.93 | 41.48 | 1.19 | 94.87 | – | –
O=C1c2ccccc2S(=O)(=O)N1CCCCCN1CCN(c2cccc(Cl)c2Cl)CC1 [molecule 7] | 72.79 | 112.26 | 112.92 | 4.63 | 48.28 | 1.77 | 99.31 | – | –
O=C1c2ccccc2S(=O)(=O)N1CCCCCCN1CCN(c2cccc(C(F)(F)F)c2)CC1 [molecule 19] | 63.86 | 113.75 | 114.05 | 4.69 | 46.84 | 1.85 | 99.61 | – | –
O=C1c2ccccc2S(=O)(=O)N1CCCCCN1CCN(c2ccc(Cl)cc2)CC1 [molecule 8] | 97.99 | 101.36 | 100.81 | 3.98 | 44.30 | 1.53 | 98.11 | – | –
O=C1c2ccccc2S(=O)(=O)N1CCCCCCN1CCN(c2ccccc2)CC1 [molecule 12] | 55.26 | 93.84 | 100.78 | 3.98 | 41.59 | 1.00 | 91.87 | – | –
O=C1c2ccccc2S(=O)(=O)N1CCCCN1CCN(c2ccc(Cl)cc2)CC1 [molecule 4] | 56.31 | 100.82 | 100.70 | 3.97 | 42.61 | 1.32 | 96.38 | – | –
O=C1c2ccccc2S(=O)(=O)N1CCCCCCN1CCN(c2ncccn2)CC1 [molecule 23] | 41.03 | 80.76 | 89.54 | 3.37 | 34.77 | −0.05 | 47.66 | – | relatively low-binding to HAS
COc1ccccc1N1CCN(CCCCCCN2C(=O)c3ccccc3S2(=O)=O)CC1 [molecule 13] | 54.89 | 84.12 | 96.78 | 3.76 | 40.54 | 0.42 | 73.28 | – | –
COc1cccc(N2CCN(CCCCCCN3C(=O)c4ccccc4S3(=O)=O)CC2)c1 [molecule 14] | 55.41 | 94.73 | 99.75 | 3.92 | 41.42 | 0.93 | 90.46 | – | –
COc1ccccc1N1CCN(CCCCCN2C(=O)c3ccccc3S2(=O)=O)CC1 [molecule 6] | 52.94 | 79.45 | 91.77 | 3.49 | 38.03 | 0.68 | 83.59 | – | –
O=C1c2ccccc2S(=O)(=O)N1CCCCCCN1CCN(c2cccc3ccccc23)CC1 [molecule 21] | 65.07 | 109.08 | 118.03 | 4.91 | 48.85 | 1.75 | 99.25 | – | –
O=C1c2ccccc2S(=O)(=O)N1CCCCCN1CCN(c2ncccn2)CC1 [molecule 9] | 48.71 | 74.93 | 81.12 | 2.91 | 34.40 | 0.58 | 79.78 | – | –
O=C1c2ccccc2S(=O)(=O)N1CCCCCN1CCN(c2cccc3ccccc23)CC1 [molecule 11] | 63.51 | 104.83 | 111.43 | 4.55 | 47.26 | 1.67 | 98.90 | – | –
